Measured values from US20070043034A1, “Chlorine Ion Uptake Modulators and Uses Thereof” (priority 2005, published 2007).

What was measured:
Na^+-K^+-ATPase = test: Activity-dependent change of Cli after postsynaptic action potential trains in CA1 pyramidal neurons; assay type: cell-based, rat; conditions: in the presence of DHO 10 μM; 20 Hz, 2.5 min trains; P=0.27
Description: The GABAB receptor antagonist CGP 55845A (1 μM) was included in the bath for most experiments. Bumetanide was stored as a 50 mM stock solution in ethanol at 4° C. and then diluted to 10 μM in ACSF. Dihydroouabain (10 μM) was diluted into ACSF and bath applied.
Action potentials in current-clamped neurons was invoked by injecting depolarizing current pulses (1.5 ms, 2 nA) at 20 Hz for 2.5 min.
Persistent increases in Cli and the GABA reversal potential have been observed following trains of action potentials. Action potential trains have long been known to cause long-lasting increases in the activity of Na^+—K^+-ATPase and corresponding changes in RMP. If NKCCl-mediated transport were thermodynamically limited, then the changes in ECl observed following action potential trains could be due to altered Na^+ and K^+ transmembrane gradients. Without being bound by any theory, it is believed that of the two cations, Nai would be most labile and would have the most influence on the Cli at which NKCCl-mediated transport reached equilibrium. Steady-state ECl and Cl^− transport kinetics were measured before and after a 20 Hz, 2.5 minute train of action potentials. […]
FIGS. 10A-10D show activity-dependent increases in Cli. FIG. 10A is a graph showing that following a train of action potentials in the recorded cell (20 Hz, 2.5 min), Cli reached a new steady state. […]

[1] = tested on: low-Mg^2+ induced recurrent seizures in the intact hippocampus; test: Low-Mg2+ ACSF induced recurrent seizures in the intact hippocampus in vitro; assay type: cell-based, rat; conditions: phenobarbital 100 μM
Source text: High expression level of the Na^+ K^+-2Cl^− (NKCCl) co-transporter in immature neurons causes the accumulation of chloride ions and a depolarized Cl^− equilibrium potential (ECl). This is linked to a higher seizure propensity and poor EEG response in neonates to the barbiturates and benzodiazepines, conventional anticonvulsant drugs that target Cl^−-permeable GABAA-receptor (GABAA-R) operated channels. […] Recurrent ictal-like seizures were induced by low-Mg^+ ACSF in intact hippocampal preparations in vitro. […] Bumetanide decreased both seizure frequency and seizure power.
FIGS. 11A-11C are graphs of low-Mg^2+πinduced recurrent seizures in the intact hippocampus in vitro. […] First and last seizures from 5 hour recording are shown on an expanded time scale. Right, corresponding power spectra in the 0.1-1000 Hz frequency band. […] Summary data are taken from ten hippocampi. […] Power of the first seizure in each recording was considered as 100%. Data are taken from 18 recordings in 10 preparations from P4-6 rats.
FIGS. 12A-12C are graphs showing low efficiency of phenobarbital in neonatal seizures. FIG. 12A is a graph showing extracellular field potential recording in the CA3 pyramidal cell layer in the intact hippocampus of a P5 rat. Continuous application of low-Mg^2+ ACSF induced recurrent tonic-clonic seizures. […] The right portion corresponds to power spectra in the 0.1-1000 Hz frequency range. […] Data are from ten experiments that were combined. FIG. 12C is a graph showing power of recurrent seizures before, during and after phenobarbital application. Power of the first seizure in each recording was considered as 100%. Seizures were not depressed by phenobarbital indicating its low efficiency.
FIGS. 13A-13C are graphs showing that alteration of Cl^−-transport by bumetanide enhanced efficacy of phenobarbital in neonatal seizures. FIG. 13A is a graph of extracellular field potential recording in the CA3 pyramidal cell layer in the intact hippocampus of a P5 rat. Application of low-Mg^2+ ACSF induced recurrent seizures. […] These are shown on an expanded time scale. The right portion of FIG. 13A is a power spectra of extracellular field potential activity before and during application of drugs. FIG. 13B is a graph showing inter-seizure intervals before, during and after application of drugs. In 75% of experiments seizures were abolished (ISI>120 min) by simultaneous application of phenobarbital and bumetanide. FIG. 13C is a graph showing power of recurrent seizures before, during and after simultaneous application of phenobarbital and bumetanide. Power of the first seizure in each recording was considered as 100%. Seizures were depressed by combination of drugs.
FIGS. 14A and 14B are graphs showing alteration of Cl^−-transport for early-life seizure therapy. […]

KA-induced rat seizures = test: Kainic acid (KA) induced seizures in rat pups, EEG recording in vivo; conditions: KA 2 mg/kg s.c.
Source text: Kainic Acid (KA) is a commonly used agent for creating an in vivo neonatal-like seizure model in rats for study. It is believed that this seizure model closely parallels human neonatal seizure disorders. KA, a glutamate receptor agonist, was used to induce neonatal-like seizures in postnatal (P) 7-12 day male Wistar rats. The rats were equipped with electrodes including recording and reference electrodes by standard means. There are many known methods for measuring parameters of seizures, in this example electrical signals were digitized using an analogue-to-digital converter for example a DigiData 1322A (Axon Instuments USA). The sampling interval can vary depending on the desired target interval. In this example, the sampling interval per signal was 200 […]s (5 kHz). For data analysis, several computer programs exist for capturing and analyzing these seizure parameters such as Clamp 9.2 (Axon Instruments, USA) and Origon 5.0 (Microcal Software, USA) used here. Interictal spikes were determined by typical means utilizing band-pass filtered raw data.
Many known methods exist for analyzing the power levels of different frequency components in a signal such as a signal recorded from a seizure episode. For example, power spectrum analysis can be performed after applying a Hamming window function. Unless otherwise indicated, power was calculated in 1-2 min time windows by integrating the root mean square value of the signal in frequency bands from 1 to 100 Hz (EEC band) and from 200 to 500 Hz (fast ripple band).
Pharmaceutical compositions of the present invention can be administered to seizure-induced rats to test the seizure modulatory properties of the pharmaceutical composition. In one exemplary method, the inhibition of NKCCl and its affect on seizures in rat pups was studied. Two days after implantation of recording electrodes, six P9-P10 rats received subcutaneous injection of KA (2 mg/kg) and six P9-10 control rats received subcutaneous 0.9% sodium chloride saline injections. 10-20 minutes after KA injection regular pattern of behavioral signs started, involving scratching-like movements of the hindpaws, loss of balance and turning on the side. Recurrent interictal and ictal electroencephalographic patterns occurred 20-80 minutes (61.2±10.4 min; mean±se) after KA injection in all rats from this experimental group (FIG. 4B). […] Interictal spikes usually occurred synchronously in the left and right hemispheres. Frequency of the interictal spikes was 1.43±0.06 Hz (n=23 seizures in 6 rats). Before transition to ictal patterns, interictal spikes were usually followed by fast ripple (100-500 Hz) and gamma-frequency oscillations (20-50 Hz). Tonic-clonic seizures were the most common type of seizures induced by KA in P9-10 rats. Ictal-tonic phase lasted 12.6±1.4 s (16 seizures in 5 rats). Population spikes of 18.7±1.2 Hz were characteristic of the tonic phase of KA-induced seizures (FIG. 4C). Tonic discharges were followed by clonic bursts (FIG. 4C). Large amplitude population spikes followed by 100-200 Hz ripples and 200-1200 ms gamma frequency after discharges characterized the clonic bursts. The mean duration of the clonic phase was 36.4±5 s (25 seizures in 6 rats). The ictal patterns were followed by postictal depression (FIG. 4 B-4C). During ictal EEG activity, motor activity consisted of scratching, jerky movements, turning on the side or on the back and frequent tail shaking. Five to ten recurrent seizures with an average interval 379±24.5 s were followed by periodic epileptiform discharges (PLEDs) (FIG. 4D).
In one exemplary experiment, a pharmaceutical composition of the present invention comprising bumetanide was compared to phenobarbital for effects on KA-induced rat seizures. Two days after implantation of recording electrodes, twenty-two P9-12 age-matched rats received subcutaneous injection with KA (2 mg/kg). […]

[2] = P9-12 rats, phenobarbital 25 mg/kg or bumetanide 0.1-0.2 mg/kg i.p.

Compound	effect of action potential trains on Cli (Na^+-K^+-ATPase)	experiments in which seizure frequency was significantly reduced [1] [%]	seizure power ([1]; bumetanide 10 μM or both, 120 min application, intact hippocampus of P4-6 rats)	animals with recurrent ictal-clonic activity / EEG clonic seizures (KA-induced rat seizures; P9-12 rats, drug i.p. 10 min after KA (phenobarbital 25 mg/kg; bumetanide 0.1-0.2 mg/kg), 6 rats per group) [%]	frequency of the ictal-tonic discharges (KA-induced rat seizures; P9-12 rats, phenobarbital 25 mg/kg i.p.) [Hz]	duration of ictal-clonic phase (KA-induced rat seizures; [2]) [s]	duration of ictal-tonic phase (KA-induced rat seizures; [2]) [s]	frequency of interictal spikes (KA-induced rat seizures; [2]) [Hz]	mean duration of single ictal episode (seizure including interictal and ictal phases) (KA-induced rat seizures; [2]) [s]	mean interval between seizures (KA-induced rat seizures; [2]) [s]	rats with ictal-tonic pattern / tonic-clonic seizures (KA-induced rat seizures; [2]) [%]	increase of power of EEG activity in the 20 minute window following seizure onset (KA-induced rat seizures; compared to pre-ictal baseline, phenobarbital 25 mg/kg or bumetanide 0.1-0.2 mg/kg i.p., saline control 444.7±136.3%) [%]
C[C@@H]1O[C@@H](O[C@H]2C[C@@H](O)[C@]3(CO)[C@H]4[C@H](O)C[C@]5(C)[C@@H]([C@@H]6COC(=O)C6)CC[C@]5(O)[C@@H]4CC[C@]3(O)C2)[C@H](O)[C@H](O)[C@H]1O [DHO, dihydroouabain]	no effect	–	–	–	–	–	–	–	–	–	–	–
CCC1(c2ccccc2)C(=O)NC(=O)NC1=O [phenobarbital]	–	70	no significant effect	100	14±3	12 ± 1.1	5.2 ± 1.4	1.56 ± 0.08	27.4 ± 2.6	241.3 ± 45.8	33.3	248±40.8
